Results from patent US20070244115A1, “Amino-Halogen-Imidazopyridines as Proton Pump Inhibitors” (Alana Pharma AG, priority 2004, published 2007).

Each compound was assayed on pentagastrin-stimulated acid secretion of the perfused rat stomach (assay: Secretion-inhibiting action on the perfused rat stomach (pentagastrin-stimulated acid secretion)). Conditions: anesthetized CD rat, dose 2.2 μmol/kg i.d. (intraduodenal).
Format: in vivo
Text: Testing of the Secretion-Inhibiting Action on the Perfused Rat Stomach
In Table A which follows, the influence of the compounds according to the invention on the pentagastrin-stimulated acid secretion of the perfused rat stomach after intraduodenal administration in vivo is shown.
The abdomen of anesthetized rats (CD rat, female, 200-250 g; 1.5 g/kg i.m. urethane) was opened after tracheotomy by a median upper abdominal incision and a PVC catheter was fixed transorally in the esophagus and another via the pylorus such that the ends of the tubes just projected into the gastric lumen. The catheter leading from the pylorus led outward into the right abdominal wall through a side opening.
After thorough rinsing (about 50-100 ml), warm (37° C.) physiological NaCl solution was continuously passed through the stomach (0.5 ml/min, pH 6.8-6.9; Braun-Unita I). The pH (pH meter 632, glass electrode EA 147; φ=5 mm, Metrohm) and, by titration with a freshly prepared 0.01N NaOH solution to pH 7 (Dosimat 665 Metrohm), the secreted HCl were determined in the effluent in each case collected at an interval of 15 minutes.
The gastric secretion was stimulated by continuous infusion of 1 μg/kg (=1.65 ml/h) of i.v. pentagastrin (left femoral vein) about 30 min after the end of the operation (i.e. after determination of 2 preliminary fractions). The substances to be tested were administered intraduodenally in a 2.5 ml/kg liquid volume 60 min after the start of the continuous pentagastrin infusion.
The body temperature of the animals was kept at a constant 37.8-38° C. by infrared irradiation and heat pads (automatic, stepless control by means of a rectal temperature sensor).
In the case of COc1ccc2nc([S+]([O-])Cc3nccc(N4CCOCC4)c3Cl)[nH]c2n1 (stereo not drawn) [Example 1, 2-(3Chloro-4-morpholin-4-yl-pyridin-2-ylmethanesulfinyl)-5-methoxy-3H-imidazo[4,5-b]pyridine], the “Inhibition of acid secretion (%)” value is reported as over 50%. With COc1ccc2nc([S@@+]([O-])Cc3nccc(N4CCOCC4)c3Cl)[nH]c2n1 [Example 2, (S)-2-(3-Chloro-4-morpholin-4-yl-pyridin-2-ylmethanesulfinyl)-5-methoxy-3H-imidazo[4,5-b]pyridine] the “Inhibition of acid secretion (%)” value was over 50%. In the case of COc1ccc2nc([S@+]([O-])Cc3nccc(N4CCOCC4)c3Cl)[nH]c2n1 [Example 3, (R)-2-(3-Chloro-4-morpholin-4-yl-pyridin-2-ylmethanesulfinyl)-5-methoxy-3H-imidazo[4,5-]pyridine], the “Inhibition of acid secretion (%)” value is reported as over 50%.
